Assay results as given in patent publication US9458092B2, “α-Substituted glycinamide derivative” (KISSEI PHARMACEUTICAL CO., LTD., priority 2013, dated 2016).

Molecular target: TRPM8 (Rattus norvegicus, UniProt Q8R455)
Assay: Confirmation test of inhibitory effects on icilin-induced wet-dog shakes
Assay type: in vivo, female SD rats
Design: test compounds were orally administered to female SD rats; from tissue; host or cells: whole animal (female SD rats), endogenous channel
Conditions: dose 3 mg/kg orally, icilin 1 mg/kg i.p. after 1 hour, shakes counted for 5 minutes
Description: Test compounds were dissolved in dimethylacetamide (wako), and 0.5% methylcellulose solution (wako) was added to make the solution or suspension containing 5% of dimethylacetamide. At a dose of 3 or 10 mg/kg/5 mL of test compounds were orally administered to female SD rats. After 1 hour, wet-dog shakes were induced by the intrapenitoneal injection of icilin (1 mg/kg) which was dissolved in polyethylene glycol 400 (wako). From 5 minutes after the administration of icilin, wet-dog shakes were counted for 5 minutes. For control example, vehicle (a mixture of dimethylacetamide (wako): 0.5% methylcellulose (wako)=5:95) was administrated similarly, and the number of wet-dog shakes was counted in the same manner. A percent inhibition of wet-dog shakes by test compound was calculated from the following formula: [1-(test compound wet-dog shake count/vehicle wet-dog shake count)]×100.

TRPM8, sequence (Q8R455 whole entry): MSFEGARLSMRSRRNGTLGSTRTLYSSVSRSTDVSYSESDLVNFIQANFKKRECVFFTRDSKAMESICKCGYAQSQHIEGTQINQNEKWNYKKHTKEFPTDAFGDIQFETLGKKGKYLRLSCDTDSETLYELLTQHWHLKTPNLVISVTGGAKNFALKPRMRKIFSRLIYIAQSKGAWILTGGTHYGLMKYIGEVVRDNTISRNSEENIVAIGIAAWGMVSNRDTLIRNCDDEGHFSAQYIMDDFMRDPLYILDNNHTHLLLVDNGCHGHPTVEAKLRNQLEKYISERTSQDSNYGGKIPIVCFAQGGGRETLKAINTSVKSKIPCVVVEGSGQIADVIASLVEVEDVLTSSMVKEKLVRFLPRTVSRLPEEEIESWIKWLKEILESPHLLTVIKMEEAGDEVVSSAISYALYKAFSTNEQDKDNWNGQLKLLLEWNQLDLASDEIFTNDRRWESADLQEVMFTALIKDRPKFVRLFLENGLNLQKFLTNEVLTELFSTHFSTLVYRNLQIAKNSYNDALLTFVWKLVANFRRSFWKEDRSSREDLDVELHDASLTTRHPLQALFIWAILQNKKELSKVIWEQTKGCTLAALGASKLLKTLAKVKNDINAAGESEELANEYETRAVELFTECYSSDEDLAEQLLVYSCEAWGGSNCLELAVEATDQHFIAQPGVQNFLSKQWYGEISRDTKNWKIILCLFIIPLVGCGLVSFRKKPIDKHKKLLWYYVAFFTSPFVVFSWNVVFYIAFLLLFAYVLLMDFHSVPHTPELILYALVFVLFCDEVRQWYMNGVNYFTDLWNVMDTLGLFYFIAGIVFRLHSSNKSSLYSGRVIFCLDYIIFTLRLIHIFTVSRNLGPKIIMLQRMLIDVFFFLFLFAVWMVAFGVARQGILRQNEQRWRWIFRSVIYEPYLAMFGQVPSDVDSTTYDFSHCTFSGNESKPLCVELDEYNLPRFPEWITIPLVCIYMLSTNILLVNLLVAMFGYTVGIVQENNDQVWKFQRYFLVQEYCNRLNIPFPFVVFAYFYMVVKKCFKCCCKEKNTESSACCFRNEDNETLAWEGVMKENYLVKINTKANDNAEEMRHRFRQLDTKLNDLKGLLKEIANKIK

Compound	% inhibition of Wet-Dog Shake [%]
NC(=O)[C@@H](c1ccccc1)N(C(=O)c1ccccc1)[C@@H]1COc2c(F)cc(Cl)cc21 (racemic) [Example 2-252M, N-[(RS)-carbamoylphenylmethyl]-N-[(SR)-5-chloro-7-fluoro-2,3-dihydrobenzofuran-3-yl]benzamide]	31
COc1ncccc1C(=O)N([C@@H]1CCc2c(F)cc(F)cc21)[C@@H](C(N)=O)c1ccccc1 [Example 2-36LP, N-[(R)-carbamoylphenylmethyl]-N-[(R)-4,6-difluoroindan-1-yl]-2-methoxynicotinamide]	74
NC(=O)[C@@H](c1cccnc1)N(C(=O)c1ccccc1)[C@@H]1CCc2ccc(Cl)cc21 [Example 2-87LP, N-[(R)-carbamoylpyridin-3-ylmethyl]-N-[(R)-6-chloroindan-1-yl]benzamide]	36
Cc1ncsc1C(=O)N([C@@H]1CCc2ccc(Cl)cc21)[C@@H](C(N)=O)c1ccccc1 [Example 2-88LP, N-[(R)-carbamoylphenylmethyl]-N-[(R)-6-chloroindan-1-yl]-4-methylthiazole-5-carboxamide]	46
NC(=O)[C@@H](c1ccccc1)N(C(=O)c1cccnc1Cl)[C@@H]1CCc2c(F)cc(Cl)cc21 [Example 2-93LP, N-[(R)-carbamoylphenylmethyl]-2-chloro-N-[(R)-6-chloro-4-fluoroindan-1-yl]nicotinamide]	100
NC(=O)[C@@H](c1cccnc1)N(C(=O)c1ccccc1Cl)[C@@H]1CCc2c(F)cc(Cl)cc21 [Example 2-97LP, N-[(R)-carbamoylpyridin-3-ylmethyl]-2-chloro-N-[(R)-6-chloro-4-fluoroindan-1-yl]benzamide]	35
Cc1ccncc1C(=O)N([C@@H]1CCc2c(F)cc(Cl)cc21)[C@@H](C(N)=O)c1ccccc1 [Example 2-100LP, N-[(R)-carbamoylphenylmethyl]-N-[(R)-6-chloro-4-fluoroindan-1-yl]-4-methylnicotinamide]	47
CNc1ncccc1C(=O)N([C@@H]1CCc2c(F)cc(Cl)cc21)[C@@H](C(N)=O)c1ccccc1 [Example 2-107LP, N-[(R)-carbamoylphenylmethyl]-N-[(R)-6-chloro-4-fluoroindan-1-yl]-2-(methylamino)nicotinamide]	68
COc1ccccc1C(=O)N([C@@H]1CCc2c(F)cc(Cl)cc21)[C@@H](C(N)=O)c1cccnc1 [Example 2-118LP, N-[(R)-carbamoylpyridin-3-ylmethyl]-N-[(R)-6-chloro-4-fluoroindan-1-yl]-2-methoxybenzamide]	62
CSc1ncccc1C(=O)N([C@@H]1CCc2ccc(Cl)cc21)[C@@H](C(N)=O)c1ccccc1 [Example 2-125LP, N-[(R)-carbamoylphenylmethyl]-N-[(R)-6-chloroindan-1-yl]-2-(methylsulfanyl)nicotinamide]	37
CSc1ncccc1C(=O)N([C@@H]1CCc2c(F)cc(Cl)cc21)[C@@H](C(N)=O)c1ccccc1 [Example 2-128LP, N-[(R)-carbamoylphenylmethyl]-N-[(R)-6-chloro-4-fluoroindan-1-yl]-2-(methylsulfanyl)nicotinamide]	65
Cc1ncsc1C(=O)N([C@@H]1CCc2c(F)cc(F)cc21)[C@@H](C(N)=O)c1ccccc1 [Example 2-132LP, N-[(R)-carbamoylphenylmethyl]-N-[(R)-4,6-difluoroindan-1-yl]-4-methylthiazole-5-carboxamide]	49
Cn1nccc1C(=O)N([C@@H]1CCc2c(F)cc(Cl)cc21)[C@@H](C(N)=O)c1ccccc1 [Example 2-133LP, N-[(R)-carbamoylphenylmethyl]-N-[(R)-6-chloro-4-fluoroindan-1-yl]-2-methyl-2H-pyrazole-3-carboxamide]	55
Cc1ncccc1C(=O)N([C@@H]1CCc2ccc(Cl)cc21)[C@@H](C(N)=O)c1ccccc1 [Example 2-137LP, N-[(R)-carbamoylphenylmethyl]-N-[(R)-6-chloroindan-1-yl]-2-methylnicotinamide]	53
Cc1cnoc1C(=O)N([C@@H]1CCc2c(F)cc(Cl)cc21)[C@@H](C(N)=O)c1ccccc1 [Example 2-150LP, N-[(R)-carbamoylphenylmethyl]-N-[(R)-6-chloro-4-fluoroindan-1-yl]-4-methylisoxazole-5-carboxamide]	49
Cc1cccnc1C(=O)N([C@@H]1CCc2c(F)cc(Cl)cc21)[C@@H](C(N)=O)c1ccccc1 [Example 2-152LP, N-[(R)-carbamoylphenylmethyl]-N-[(R)-6-chloro-4-fluoroindan-1-yl]-3-methylpyridine-2-carboxamide]	44
Cc1ncncc1C(=O)N([C@@H]1CCc2c(F)cc(Cl)cc21)[C@@H](C(N)=O)c1ccccc1 [Example 2-154LP, N-[(R)-carbamoylphenylmethyl]-N-[(R)-6-chloro-4-fluoroindan-1-yl]-4-methylpyrimidine-5-carboxamide]	36
Cc1ncccc1C(=O)N([C@@H]1CCc2c(F)cc(Cl)cc21)[C@@H](C(N)=O)c1cccc(F)c1 [Example 2-161LP, N-[(R)-carbamoyl-(3-fluorophenyl)methyl]-N-[(R)-6-chloro-4-fluoroindan-1-yl]-2-methylnicotinamide]	42
Cc1cnccc1C(=O)N([C@@H]1CCc2c(F)cc(Cl)cc21)[C@@H](C(N)=O)c1ccccc1 [Example 2-167LP, N-[(R)-carbamoylphenylmethyl]-N-[(R)-6-chloro-4-fluoroindan-1-yl]-3-methylisonicotinamide]	64
Cc1ncccc1C(=O)N([C@@H]1CCc2c(F)cc(Cl)cc21)[C@@H](C(N)=O)c1cccc(O)c1 [Example 2-168LP, N-[(R)-carbamoyl-(3-hydroxyphenyl)methyl]-N-[(R)-6-chloro-4-fluoroindan-1-yl]-2-methylnicotinamide]	36
NC(=O)[C@@H](c1cccnc1)N(C(=O)c1cccc2c1OCO2)[C@@H]1CCc2c(F)cc(Cl)cc21 [Example 2-172LP, N-[(R)-carbamoylpyridin-3-ylmethyl]-N-[(R)-6-chloro-4-fluoroindan-1-yl]benzo[1,3]dioxole-4-carboxamide]	43
NC(=O)[C@@H](c1ccccc1)N(C(=O)c1cccc2c1OCO2)[C@@H]1CCc2c(F)cc(Cl)cc21 [Example 2-173LP, N-[(R)-carbamoylphenylmethyl]-N-[(R)-6-chloro-4-fluoroindan-1-yl]benzo[1,3]dioxole-4-carboxamide]	99

Same assay, conditions: dose 10 mg/kg orally, icilin 1 mg/kg i.p. after 1 hour, shakes counted for 5 minutes

Compound	% inhibition of Wet-Dog Shake [%]
COc1ccc2c(c1)[C@H](N(C(=O)c1cccnc1)[C@@H](C(N)=O)c1ccccc1)CC2 [Example 1-6, N-[(R)-Carbamoylphenylmethyl]-N-[(R)-6-methoxyindan-1-yl]nicotinamide]	64
NC(=O)[C@@H](c1ccccc1)N(C(=O)c1ccccc1)[C@@H]1CCc2ccc(OC(F)F)cc21 [Example 2-11LP, N-[(R)-carbamoylphenylmethyl]-N-[(R)-6-difluoromethoxyindan-1-yl]benzamide]	85
NC(=O)[C@@H](c1ccccc1)N(C(=O)c1cccnc1)[C@@H]1CCc2ccc(OC(F)F)cc21 [Example 2-26LP, N-[(R)-carbamoylphenylmethyl]-N-[(R)-6-difluoromethoxyindan-1-yl]nicotinamide]	83
NC(=O)[C@@H](c1ccccc1)N(C(=O)c1cccnc1N)[C@@H]1CCc2ccc(OC(F)F)cc21 [Example 2-27LP, 2-amino-N-[(R)-carbamoylphenylmethyl]-N-[(R)-6-difluoromethoxyindan-1-yl]nicotinamide]	95
NC(=O)[C@@H](c1ccccc1)N(C(=O)c1cccnc1N)[C@@H]1CCc2ccc(Cl)cc21 [Example 2-33LP, 2-amino-N-[(R)-carbamoylphenylmethyl]-N-[(R)-6-chloroindan-1-yl]nicotinamide]	98
COc1cc(F)c2c(c1)[C@H](N(C(=O)c1cccnc1)[C@@H](C(N)=O)c1ccccc1)CC2 [Example 2-39LP, N-[(R)-carbamoylphenylmethyl]-N-[(R)-4-fluoro-6-methoxyindan-1-yl]nicotinamide]	98
Cc1cc(F)c2c(c1)[C@H](N(C(=O)c1cccnc1)[C@@H](C(N)=O)c1ccccc1)CC2 [Example 2-40LP, N-[(R)-carbamoylphenylmethyl]-N-[(R)-4-fluoro-6-methylindan-1-yl]nicotinamide]	95
NC(=O)[C@@H](c1ccccc1)N(C(=O)c1cccnc1)[C@@H]1CCc2c(F)cccc21 [Example 2-56LP, N-[(R)-carbamoylphenylmethyl]-N-[(R)-4-fluoroindan-1-yl]nicotinamide]	50
NC(=O)[C@@H](c1ccccc1)N(C(=O)c1cncs1)[C@@H]1CCc2ccc(Cl)cc21 [Example 2-71LP, N-[(R)-carbamoylphenylmethyl]-N-[(R)-6-chloroindan-1-yl]thiazole-5-carboxamide]	83
NC(=O)[C@@H](c1cccnc1)N(C(=O)c1ccccc1)[C@@H]1CCc2c(F)cc(F)cc21 [Example 2-76LP, N-[(R)-carbamoylpyridin-3-ylmethyl]-N-[(R)-4,6-difluoroindan-1-yl]benzamide]	95
